“And” between values parts separate entries of the source, which are not always exact repeats. Equal entries are not always repeated. Where two headings read alike, the source gives them in different places. No end group written: not given here.
System: polymorphonuclear leukocyte adhesion to TNF activated endothelial cells
Assay type: cell-based, human
Settings: for Average % Change of PMN Adhesion to TNF Activated ECs: average over PMN donors (# donors in parentheses)
Summary of the method: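 Human leukocytes were isolated on Ficoll-Hypaque and labelled for 15 min with 111In-oxide or 51Cr. They were added to TNF-activated HUVEC monolayers (≤5th passage, fibronectin-coated, washed with RPMI/1% FCS) for 30 min at 37 °C, 5% CO2. Adherent radioactivity was counted in quadruplicate, with basal binding to non-activated endothelium as control.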

IGWRNVTRLLVFATDDGFHFAGDGKLGAI [Peptide 4-29, NH2 --Ile--Gly--Trp--Arg--Asn--Val--Thr--Arg--Leu--Leu--Val--Phe--Ala--Thr--Asp--Asp--Gly--Phe--His--Phe--Ala--Gly--Asp--Gly--Lys--Leu--Gly--Ala--Ile--COOH]
activity of the peptide after storage for different times at 4° C.: maintained
concentration of peak inhibitory activity in the PMN adhesion assay: 10^-5 to 10^-6 M and 10^-5 M
inhibitory activity in the PMN adhesion assay (in words): significant inhibitory activity
Average % Change of PMN Adhesion to TNF Activated ECs (10^-4 M): -30%
Percent Change in PMN Adhesion to TNF Activated ECs (10^-4 M, donor 108, peptide frozen): -16%
Percent Change in PMN Adhesion to TNF Activated ECs (10^-4 M, donor 272, peptide fresh (second line of donor 272 fresh, last line of table)): +53%
Average % Change of PMN Adhesion to TNF Activated ECs (10^-5 M): -65%
Percent Change in PMN Adhesion to TNF Activated ECs (10^-5 M, donor 108, peptide frozen): -63%
Average % Change of PMN Adhesion to TNF Activated ECs (10^-6 M): -48%
Percent Change in PMN Adhesion to TNF Activated ECs (10^-6 M, donor 100, peptide frozen): -68%
Percent Change in PMN Adhesion to TNF Activated ECs (10^-6 M, donor 272, peptide fresh (second line of donor 272 fresh, last line of table)): -41%
Percent Change in PMN Adhesion to TNF Activated ECs (10^-6 M, donor 475, peptide fresh): -76%
Average % Change of PMN Adhesion to TNF Activated ECs (10^-7 M): +3%
Percent Change in PMN Adhesion to TNF Activated ECs (10^-7 M, donor 121, peptide frozen): +3%
Percent Change in PMN Adhesion to TNF Activated ECs (10^-7 M, donor 155, peptide fresh): +1%
Percent Change in PMN Adhesion to TNF Activated ECs (10^-7 M, donor 272, peptide fresh (second line of donor 272 fresh, last line of table)): +42%
Percent Change in PMN Adhesion to TNF Activated ECs (10^-7 M, donor 323, peptide fresh, or 4° for 2 wks): +45%
Percent Change in PMN Adhesion to TNF Activated ECs (10^-7 M, donor 593, peptide fresh, or 4° for 2 wks): +14%
Average % Change of PMN Adhesion to TNF Activated ECs (10^-8 M): -12%
Percent Change in PMN Adhesion to TNF Activated ECs (10^-8 M, donor 178, peptide fresh): +2%
effect of freezing and thawing the peptide on its activity in the adhesion assay (PMNs from donors 100 and 272): does not significantly effect its activity

Reference: patent US5340800A, “Peptide medicaments for the treatment of disease” (priority 1992, dated 1994)
